In data set [1] the test system is C. elegans. The data set is described as follows: Worm respiration assay (Seahorse XF24). The class given is in vivo. Conditions: worms treated with antibiotic. On the procedure: Treatments with antibiotics (carbenicillin, doxycycline, and chloramphenicol (all Sigma)) were performed with heat-killed bacteria (Wood et al., 2004, Nature 430, 686). Carbenicillin, doxycycline, and chloramphenicol were added at the indicated concentrations. Animals were exposed to antibiotics from eggs to L4 larval stage and then shifted on plates seeded with live OP50 bacteria. Oxygen consumption was measured using the Seahorse XF24 equipment (Seahorse Bioscience Inc., North Billerica, Mass.). Typically, 200 animals per conditions were recovered from NGM plates with M9 medium, washed three times in 2 mL M9 to eliminate residual bacteria, and resuspended in 500 μL M9 medium. Worms were transferred in 24-well standard Seahorse plates (#100777-004) (50 worms per well) and oxygen consumption was measured 6 times. Respiration rates were normalized to the number of worms in each individual well.

In data set [2] the test system is mitochondrial unfolded protein response (UPR^mt). The data set is described as follows: UPR^mt GFP reporter worms (hsp-6::GFP). The class given is in vivo, C. elegans. Particulars: Day 1 adults. On the procedure: Treatments with antibiotics (carbenicillin, doxycycline, and chloramphenicol (all Sigma)) were performed with heat-killed bacteria (Wood et al., 2004, Nature 430, 686). Carbenicillin, doxycycline, and chloramphenicol were added at the indicated concentrations. Animals were exposed to antibiotics from eggs to L4 larval stage and then shifted on plates seeded with live OP50 bacteria. GFP expression and quantification were carried out according to the protocol previously described (Durieux et al, 2011, Cell 144, 79). Briefly, GFP was monitored in Day 1 adults. Fluorimetric assays were performed using a Victor X4 multilabel plate reader (Perkin-Elmer Life Science). Eighty roller worms were picked at random (20 worms per well of a black-walled 96-well plate) and each well was read four times and averaged. Each experiment was repeated at least twice. For picture acquisition, animals were mounted on 2% agarose pads in a droplet of 10 mM tetramisole (Sigma) and examined using a Zeiss Axioplan-2 microscope (Carl Zeiss MicroImaging, Thornwood, N.Y., USA) equipped for both DIC and epifluorescence. Images were obtained using a Coolsnap ES^2 camera.

Data set [3] relates to C. elegans. As to the kind of experiment: Worm lifespan analysis. The class given is in vivo. Conditions: antibiotic from eggs to L4 larval stage, heat-killed bacteria; 20° C. The procedure:
Lifespan tests were performed as described (Mouchiroud et al., 2011, Aging Cell 10, 39). Briefly, 60-100 animals were used per conditions and scored every other day. All lifespan experiments were performed at 20° C. […] Treatments with antibiotics (carbenicillin, doxycycline, and chloramphenicol (all Sigma)) were performed with heat-killed bacteria (Wood et al., 2004, Nature 430, 686). Carbenicillin, doxycycline, and chloramphenicol were added at the indicated concentrations. Animals were exposed to antibiotics from eggs to L4 larval stage and then shifted on plates seeded with live OP50 bacteria.

Data set [4] deals with Hepa1-6 mouse liver cells. As to the kind of experiment: Oxygen consumption in Hepa1-6 cells (Seahorse XF24). Format: cell-based. Particulars: 48 h incubation, normalized for protein content. On the procedure: (§1) Hepa1-6 mouse liver cells were maintained in DMEM medium containing 4.5 g/l glucose and 10% fetal calf serum. Hepa1-6 cells were incubated for 48 h with doxycycline or chloramphenicol (both Sigma) in medium containing 1 g/l glucose, with 1% (v/v) oleate-BSA (Sigma) supplementation, and without any other antibiotics. Oxygen consumption in Hepa1-6 cells was measured using the Seahorse XF24 equipment (Watanabe et al., 2006, Nature 439, 484), and normalized for protein content. ATP content was measured using CellTiter-Glo (Promega), according to the manufacturer's protocol.

For data set [5], the system named is Hepa1-6 mouse liver cells. As to the kind of experiment: ATP content (CellTiter-Glo) in Hepa1-6 cells. Format: cell-based. Conditions: data not shown. On the procedure: as §1
For another data set, the system named is C57BL/6N mice. The data set is described as follows: Mouse indirect calorimetry (CLAMS). Format: in vivo. Particulars: C57BL/6 mice, chow containing doxycycline for 10 days, data not shown. On the procedure: Wild type C57BL/6N mice were treated for 10 days with 50 mpkd doxycycline (Sigma) in food admix. Oxygen consumption (VO2), respiratory exchange ratios (RER), and activity were monitored by indirect calorimetry using the comprehensive laboratory animal monitoring system (CLAMS) (Columbus Instruments, Columbus, Ohio, USA).

Turning to `O=C(N[C@H](CO)[C@H](O)c1ccc([N+](=O)[O-])cc1)C(Cl)Cl` [chloramphenicol], in the data set with C. elegans [1], the “oxygen consumption (respiration) of C. elegans” value is “decreased respiration”. In addition, the “UPR^mt induction in C. elegans” value in data set [2] is “induced UPR^mt”. Besides, the “lifespan of C. elegans” value in the data set with C. elegans [3] is recorded as “extended lifespan”. The “respiration (oxygen consumption) in Hepa1-6 cells” value in data set [4] was “decreased respiration”.
In the case of `C[C@H]1c2cccc(O)c2C(=O)C2=C(O)[C@]3(O)C(=O)C(C(N)=O)=C(O)[C@@H](N(C)C)[C@@H]3[C@@H](O)[C@@H]21` [doxycycline], in data set [5], the “cell viability as measured by ATP levels” value was “without affecting cell viability”. Further, in the data set with C57BL/6N mice, the activity result is listed as “without changes”, the body weight entry is given as “without changes” and the food intake entry is “without changes”.

Values taken from US9180134B2, “Mitochondrial ribosomal proteins as aging regulators” (ECOLE POLYTECHNIQUE FEDERALE DE LAUSANNE (EPEL), priority 2011, dated 2015).
